Assay [1] addresses human RIPK1 (Homo sapiens (Human), UniProt Q13546). As to the kind of experiment: KINOMEscan binding assay, human RIPK1. The conditions noted are these: Table 21. The method, boiled down: (§1)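 Binding constants were derived by fitting qPCR-quantified bead-retained kinase against compound concentration to the Hill equation, slope set at −1. Compound series were 3-fold over 11 points with 1% DMSO; most top concentrations were 30,000 nM. Kinases were T7-phage-tagged or HEK-293-produced with DNA tags.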

For assay [2], the target named is human RIPK3 (Homo sapiens (Human), UniProt Q9Y572). As to the kind of experiment: KINOMEscan binding assay, human RIPK3. The conditions noted are these: Table 21. A digest of the protocol:
as §1

Sequence of human RIPK3 (Q9Y572 whole entry): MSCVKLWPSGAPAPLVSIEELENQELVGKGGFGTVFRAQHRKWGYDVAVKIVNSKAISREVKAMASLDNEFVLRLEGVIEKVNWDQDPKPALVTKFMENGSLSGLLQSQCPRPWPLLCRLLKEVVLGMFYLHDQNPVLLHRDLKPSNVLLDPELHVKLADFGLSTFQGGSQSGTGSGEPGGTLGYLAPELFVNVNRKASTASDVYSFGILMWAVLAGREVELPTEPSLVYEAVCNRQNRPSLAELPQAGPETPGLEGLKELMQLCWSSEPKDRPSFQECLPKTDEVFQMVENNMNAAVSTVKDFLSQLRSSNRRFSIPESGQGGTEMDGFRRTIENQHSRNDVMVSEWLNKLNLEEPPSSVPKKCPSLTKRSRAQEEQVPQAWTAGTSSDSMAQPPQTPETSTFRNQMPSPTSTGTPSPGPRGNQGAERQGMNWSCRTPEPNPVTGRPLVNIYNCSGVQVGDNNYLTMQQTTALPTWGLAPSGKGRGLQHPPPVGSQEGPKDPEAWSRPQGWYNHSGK
Sequence of human RIPK1 (Q13546 whole entry): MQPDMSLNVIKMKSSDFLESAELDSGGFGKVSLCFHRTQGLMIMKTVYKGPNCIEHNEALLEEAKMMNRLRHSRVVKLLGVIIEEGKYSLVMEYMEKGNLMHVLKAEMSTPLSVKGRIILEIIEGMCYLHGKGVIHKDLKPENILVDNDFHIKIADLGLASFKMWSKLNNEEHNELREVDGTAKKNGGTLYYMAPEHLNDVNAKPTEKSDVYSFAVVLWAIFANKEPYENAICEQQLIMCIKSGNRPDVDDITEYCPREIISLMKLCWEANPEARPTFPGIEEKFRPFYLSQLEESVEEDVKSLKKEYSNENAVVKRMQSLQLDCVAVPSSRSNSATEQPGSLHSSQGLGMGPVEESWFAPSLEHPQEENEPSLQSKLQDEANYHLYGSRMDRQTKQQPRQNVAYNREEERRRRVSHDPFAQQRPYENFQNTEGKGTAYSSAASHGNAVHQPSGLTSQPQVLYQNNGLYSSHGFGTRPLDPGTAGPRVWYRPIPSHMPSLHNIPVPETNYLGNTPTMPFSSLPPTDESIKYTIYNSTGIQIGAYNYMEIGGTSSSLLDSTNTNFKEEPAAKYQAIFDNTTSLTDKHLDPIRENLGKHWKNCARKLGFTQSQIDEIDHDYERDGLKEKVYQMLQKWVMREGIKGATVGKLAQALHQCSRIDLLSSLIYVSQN

In general, Kd refers to a measure of binding affinity in units of concentration. Read a high Kd as weaker binding. On to `CC1CN(C)CC(C)C1n1cc(-c2cnc(N)c3c(-c4ccc(NS(=O)(=O)C(F)F)c(O[C@@H](C)c5ccc(F)cc5)c4)nn(C)c23)cn1` (stereo partly drawn) [Compound 172, N-(4-(4-amino-1-methyl-7-[1-(1,3,5-trimethylpiperidin-4-yl)-1H-pyrazol-4-yl]-1H-pyrazolo[4,3-c]pyridin-3-yl}-2-[(1S)-1-(4-fluorophenyl)ethoxy]phenyl)-1,1-difluoromethanesulfonamide], for which the dissociation constant (Kd) in assay [1] is 0.1 to 10 µM; in assay [2] it was greater than 10 µM.

As for `CCS(=O)(=O)Nc1ccc(-c2nn(C)c3c(NC(C)=O)cnc(N)c23)cc1OCc1ccc(F)cc1` [Compound 2, N-(4-amino-3-(4-(ethylsulfonamido)-3-((4-fluorobenzyl)oxy)phenyl)-1-methyl-1H-pyrazolo[4,3-c]pyridin-7-yl)acetamide], the dissociation constant (Kd) in assay [1] and in assay [2] was greater than 10 µM throughout.

Regarding `C[C@H](Oc1cc(-c2nn(C)c3c(-c4cnn(C5CCOCC5)c4)cnc(N)c23)ccc1NS(=O)(=O)Cc1ccccc1)c1ccc(F)cc1` [Compound 125, (S)-N-(4-(4-amino-1-methyl-7-(1-(tetra-hydro-2H-pyran-4-yl)-1H-pyrazol-4-yl)-1H-pyrazolo[4,3-c]pyridin-3-yl)-2-(1-(4-fluoro-phenyl)eth-oxy)phenyl)-1-phenylmethane-sulfonamide], the Kd in assay [1] and in assay [2] was greater than 10 µM in each case.

As to `CCS(=O)(=O)Nc1ccc(-c2nn(C)c3c(-c4cnn(C5CCOCC5)c4)cnc(N)c23)cc1O[C@@H](C)c1ccc(F)cc1` [Compound 45, (S)-N-(4-(4-amino-1-methyl-7-(1-(tetrahydro-2H-pyran-4-yl)-1H-pyrazol-4-yl)-1H-pyrazolo[4,3-c]pyridin-3-yl)-2-(1-(4-fluorophenyl)ethoxy)phe-nyl)ethanesulfonamide], the equilibrium dissociation constant (Kd) in assay [1] is greater than 10 µM; in assay [2], 0.1 to 10 µM.

As to `C[C@H](Oc1cc(-c2nn(C)c3c(-c4cnn(CC5CCCN5)c4)cnc(N)c23)ccc1NS(=O)(=O)C(F)F)c1ccc(F)cc1` (stereo partly drawn) [Compound 88, N-(4-(4-amino-1-methyl-7-(1-(pyrrolidin-2-ylmethyl)-1H-pyrazol-4-yl)-1H-pyrazolo[4,3-c]pyridin-3-yl)-2-((S)-1-(4-fluorophenyl)ethoxy)phenyl)-1,1-difluoromethane-sulfonamide], the Kd in assay [1] and in assay [2] was greater than 10 µM in each case.

`Cn1nc(-c2ccc(NS(=O)(=O)C(F)F)c(OC3(c4ccc(F)cc4)CC3)c2)c2c(N)ncc(-c3cnn(C4CCOCC4)c3)c21` [Compound 140, N-(4-(4-amino-1-methyl-7-(1-(tetrahydro-2H-pyran-4-yl)-1H-pyrazol-4-yl)-1H-pyrazolo[4,3-c]pyridin-3-yl)-2-(1-(4-fluorophenyl)cyclopropoxy)phenyl)-1,1-difluoromethane-sulfonamide]: the equilibrium dissociation constant (Kd) in assay [1] and in assay [2] was greater than 10 µM in each case.

In the case of `Nc1ncc(-c2cnn(C3CCOCC3)c2)c2occ(-c3ccc(NS(=O)(=O)CC(F)(F)F)c(OCc4ccc(F)cc4)c3)c12` [Compound 11, N-(4-(4-amino-7-(1-(tetrahydro-2H-pyran-4-yl)-1H-pyrazol-4-yl)furo[3,2-c]pyridin-3-yl)-2-((4-fluorobenzyl)oxy)phenyl)-2,2,2-trifluoroethane-1-sulfonamide], the Kd in assay [1] and in assay [2] was greater than 10 µM in each case.

Take `Cc1nn(C2CCN(C)C(C)(C)C2)cc1-c1cnc(N)c2c(-c3ccc(NS(=O)(=O)C(F)F)c(O[C@@H](C)c4ccc(F)cc4)c3)nn(C)c12` (stereo partly drawn) [Compound 156, N-(4-(4-amino-1-methyl-7-(3-methyl-1-(1,2,2-trimethylpiperidin-4-yl)-1H-pyrazol-4-yl)-1H-pyrazolo[4,3-c]pyridin-3-yl)-2-((S)-1-(4-fluorophenyl)ethoxy)phenyl)-1,1-difluoromethanesulfonamide]: the dissociation constant (Kd) in assay [1] and in assay [2] was greater than 10 µM each time.

In the case of `C[C@H](Oc1cc(-c2nn(C)c3c(-c4ccnc(N(C)C)c4)cnc(N)c23)ccc1NS(=O)(=O)C(F)F)c1ccc(F)cc1` [Compound 49, (S)-N-(4-(4-amino-7-(2-(dimethylamino)pyridin-4-yl)-1-methyl-1H-pyrazolo[4,3-c]pyridin-3-yl)-2-(1-(4-fluorophenyl)ethoxy)phenyl)-1,1-difluoromethanesulfonamide], the dissociation constant Kd in assay [1] and in assay [2] was greater than 10 µM in each case.

For `C[C@H](Oc1cc(-c2cnn3ccnc(N)c23)ccc1NS(=O)(=O)C(F)F)c1ccc(F)cc1` [Compound 22, (S)—N-(4-(4-aminopyrazolo[1,5-a]pyrazin-3-yl)-2-(1-(4-fluorophenyl)ethoxy)phenyl)-1,1-difluoromethanesulfonamide], the Kd in assay [1] and in assay [2] was greater than 10 µM each time.

In the case of `C[C@H](Oc1cc(-c2nn(C)c3c(C#CC4CCN(CC(F)(F)F)CC4)cnc(N)c23)ccc1NS(=O)(=O)C(F)F)c1ccc(F)cc1` [Compound 128, (S)-N-(4-(4-amino-1-methyl-7-((1-(2,2,2-trifluoroethyl)piperidin-4-yl)ethynyl)-1H-pyrazolo[4,3-c]pyridin-3-yl)-2-(1-(4-fluorophenyl)ethoxy)phenyl)-1,1-difluoromethane-sulfonamide], the dissociation constant (Kd) in assay [1] and in assay [2] was greater than 10 µM throughout.

With `C[C@H](Oc1cc(-c2nn(C)c3c(-c4ccc5c(cnn5C)c4)cnc(N)c23)ccc1NS(=O)(=O)C(F)F)c1ccc(F)cc1` [Compound 166, (S)-N-(4-(4-amino-1-methyl-7-(1-methyl-1H-indazol-5-yl)-1H-pyrazolo[4,3-c]pyridin-3-yl)-2-(1-(4-fluorophenyl)ethoxy)phenyl)-1,1-difluoromethanesulfonamide], the Kd in assay [1] and in assay [2] was greater than 10 µM in each case.

On to `C[C@H](Oc1cc(-c2nn(C)c3c(-c4ccc(C(F)(F)F)nc4)cnc(N)c23)ccc1NS(=O)(=O)C(F)F)c1ccc(F)cc1` [Compound 117, (S)-N-(4-(4-amino-1-methyl-7-(6-(trifluoromethyl)pyridin-3-yl)-1H-pyrazolo[4,3-c]pyridin-3-yl)-2-(1-(4-fluorophenyl)ethoxy)phenyl)-1,1-difluoromethanesulfonamide], for which the Kd in assay [1] and in assay [2] was greater than 10 µM each time.

For `Cc1noc(C)c1-c1cnc(N)c2c(-c3ccc(NS(=O)(=O)C(F)F)c(O[C@@H](C)c4ccc(F)cc4)c3)nn(C)c12` [Compound 33, (S)-N-(4-(4-amino-7-(3,5-dimethylisoxazol-4-yl)-1-methyl-1H-pyrazolo[4,3-c]pyridin-3-yl)-2-(1-(4-fluorophenyl)ethoxy)phenyl)-1,1-difluoromethanesulfonamide], the Kd in assay [1] and in assay [2] was greater than 10 µM throughout.

Turning to `C[C@H](Oc1cc(-c2nn(C)c3c(N4CCOCC4)cnc(N)c23)ccc1NS(=O)(=O)C(F)F)c1ccc(F)cc1` [Compound 141, N-{4-[4-amino-1-methyl-7-(morpholin-4-yl)-1H-pyrazolo[4,3-c]pyridin-3-yl]-2-[(1S)-1-(4-fluorophenyl)ethoxy]phenyl}-1,1-difluoromethanesulfonamide], the dissociation constant Kd in assay [1] and in assay [2] was greater than 10 µM in each case.

As for `CCS(=O)(=O)Nc1ccc(-c2coc3c(-c4cnn(CCO)c4)cnc(N)c23)cc1OCc1ccc(F)cc1` [Compound 4, N-(4-(4-amino-7-(1-(2-hydroxyethyl)-1H-pyrazol-4-yl)furo[3,2-c]pyridin-3-yl)-2-((4-fluorobenzyl)oxy)phe-nyl)ethanesulfonamide], the dissociation constant Kd in assay [1] and in assay [2] was greater than 10 µM each time.

In the case of `C[C@H](Oc1cc(-c2nn(C)c3c(-c4cnn(C5CCN(CC(F)(F)F)CC5)c4)cnc(N)c23)ccc1NS(=O)(=O)C(F)F)c1ccc(F)cc1` [Compound 61, (S)-N-(4-(4-amino-1-methyl-7-(1-(1-(2,2,2-trifluoroethyl)piperidin-4-yl)-1H-pyrazol-4-yl)-1H-pyrazolo[4,3-c]pyridin-3-yl)-2-(1-(4-fluorophenyl)ethoxy)phenyl)-1,1-difluoromethanesulfonamide], the dissociation constant (Kd) in assay [1] and in assay [2] was greater than 10 µM each time.

For `CCS(=O)(=O)Nc1ccc(-c2ncn3ccnc(N)c23)cc1OCc1ccc(F)cc1` [Compound 63, N-(4-(8-Aminoimidazo[1,5-a]pyrazin-1-yl)-2-((4-fluorophenyl)methoxy)phenyl) ethane-1-sulfonamide], the Kd in assay [1] and in assay [2] was greater than 10 µM each time.

`C[C@H](Oc1cc(-c2nn(C)c3c(-c4cnn(C5CCCNCC5)c4)cnc(N)c23)ccc1NS(=O)(=O)C(F)F)c1ccc(F)cc1` (stereo partly drawn) [Compound 74, N-(4-(4-amino-7-(1-(azepan-4-yl)-1H-pyrazol-4-yl)-1-methyl-1H-pyrazolo[4,3-c]pyridin-3-yl)-2-((S)-1-(4-fluorophenyl)ethoxy)phenyl)-1,1-difluoromethane-sulfonamide]: the Kd in assay [1] and in assay [2] was greater than 10 µM throughout.

As to `C[C@H](Oc1cc(-c2nn(C)c3c(-c4cnc(N(C)C)nc4)cnc(N)c23)ccc1NS(=O)(=O)C(F)F)c1ccc(F)cc1` [Compound 106, (S)-N-(4-(4-amino-7-(2-(dimethylamino)pyrimidin-5-yl)-1-methyl-1H-pyrazolo[4,3-c]pyridin-3-yl)-2-(1-(4-fluorophenyl)ethoxy)phenyl)-1,1-difluoromethanesulfonamide], the dissociation constant (Kd) in assay [1] and in assay [2] was greater than 10 µM throughout.

In the case of `C[C@H](Oc1cc(-c2nn(C)c3c(C4=CCOCC4)cnc(N)c23)ccc1NS(=O)(=O)C(F)F)c1ccc(F)cc1` [Compound 43, (S)-N-(4-(4-amino-7-(3,6-dihydro-2H-pyran-4-yl)-1-methyl-1H-pyrazolo[4,3-c]pyridin-3-yl)-2-(1-(4-fluorophenyl)ethoxy)phenyl)-1,1-difluoromethanesulfonamide], the dissociation constant (Kd) in assay [1] and in assay [2] was greater than 10 µM each time.

These data come from patent US20250115598A1 (Anaxis Pharma Pty Ltd, priority 2021, published 2025).
